In patent US6353007B1, “Substituted 1-(4-aminophenyl)indoles and their use as anti-inflammatory agents” (Boehringer Ingelheim Pharmaceuticals, Inc., priority 2000, dated 2002):

Test system: IL-2 promoter/enhancer
Assay: IL-2 promoter assay (luciferase reporter, J.1F/C6 Jurkat cells, ionomycin and PMA induction)
Type: cell-based
Conditions: Homo sapiens; J.1F/C6 Jurkat cell line; induction with ionomycin and PMA; read-out: IC50, inhibition of luciferase activity
Excerpt: The IL-2 promoter assay measures transcriptional activation of a luciferase reporter gene which has been placed under control of the IL-2 promoter/enhancer. All the known regulatory features of the IL-2 gene are contained within a ˜300 bp sequence immediately upstream of the open reading frame. The region −328 to +35 relative to the transcription start site of the IL-2 gene is obtained by […] of human genomic DNA and is subcloned into the promoterless luciferase reporter vector pGL2-Basic (Promega). The resulting construct, pIL2P-luc, and a vector containing a neomycin resistance gene, pcDNA/Neo (Invitrogen), are linearized and stably transfected into Jurkat cells (a human T cell line) by electroporation.
For screening compounds, the cells are pelleted by centrifugation, washed once with PBS, resuspended in RPMI (phenol red-free) containing 5% FBS, and dispensed into 96-well, white microtiter plates (Packard) at 50,000 cells/well. The cells are pre-incubated with compounds (1 μg/ml) for 15 min prior to addition of ionomycin (1 μg/ml) and PMA (10 ng/ml) in a final volume of 100 μl. Following a 5 hr incubation at 37° C. in a humidified incubator, 100 μl of Luc-Lite lysis buffer/luciferase assay buffer (Promega) is added and luminescence measured using a Packard TopCount scintillation counter/luminometer.

C=CC[C@@H]1/C=C(\C)C[C@H](C)C[C@H](OC)[C@H]2O[C@@](O)(C(=O)C(=O)N3CCCC[C@H]3C(=O)O[C@H](/C(C)=C/[C@@H]3CC[C@@H](O)[C@H](OC)C3)[C@H](C)[C@@H](O)CC1=O)[C@H](C)C[C@@H]2OC [FK506]
IC50: 0.3 nM
